{"source": "patent US9526785B2", "about": "“Pharmaceuticals for oral delivery” (Enteris BioPharma, Inc., priority 2013, dated 2016)", "assay": "Tigecycline plasma PK after IV bolus in dogs", "type": "in vivo, Beagle dogs", "conditions": "for concentration at 10 min / concentration at 15 min / concentration at 20 min: Beagle", "method": "Adult beagle dogs weighing approximately 9 to 15 kg were used in the study. […] Room temperature was set to be maintained between approximately 20±5° C. Relative humidity was monitored but not controlled.\nTEKLAD™ Certified Canine Diet was provided once daily in amounts (˜400 grams) appropriate for the size and age of the animals. Tap water was available ad libitum via automatic watering device or water bowls.\nDoses are expressed in terms of free net tigecycline content. […] Oral dosing of enteric-coated capsules was accomplished by administering them to the back of the dog's mouth, followed by a chase of 5 mL water to ensure swallowing.\nWater was provided ad libitum. […] Subsequently, each group of animals was dosed based on the protocol, i.e. either IV, or PO by capsule.\nMinocycline (VWR international) was used as an internal standard. Sample processing/clean-up of plasma samples was carried out offline by protein precipitation with acidified acetonitrile using 0.5% trifluoroacetic acid (TFA).\nThe HPLC system consisted of Shimadzu SIL-HTc HPLC system equipped with dual Shimadzu LC-10ADvp isopumps, a Shimadzu CTO-10ASvp column temperature controller and a Shimadzu SPD-10Avp variable wavelength detector. […] Mobile phase A consisted of 23 mM phosphate buffer pH 2.5 with 4 mM 1-octanesulfonic acid, while mobile phase B consisting of 90% acetonitrile, 10% water, with 2 mM 1-octanesulfonic acid. […] The total runtime was 18 minutes per sample. The mobile phase flow rate was 1.2 mL/min. Detection was performed using the SPD-10Avp variable wavelength detector set at 350 nm, with a sensitivity of 0.001 aufs.\nThe samples were then centrifuged under refrigeration at 13 k rpm for 5 minutes. The supernatant was taken and the liquid removed to dryness under nitrogen in a turbovap. The dried extract was reconstituted in 60 μL of mobile phase A and the suspension was further centrifuged at 5 k rpm for 5 minutes to pellet any insoluble matter. The resulting supernatant was then injected onto the LC.\nThe unknown concentration in dog plasma samples was determined by interpolation of the peak area ratios of analyte:internal standard versus the ratio of their nominal concentrations into the regression line obtained from calibration standards spiked in pooled dog plasma. No regression weighting was used for the calculations. […] The calibration curve covered the range of 0.05 μg/mL to 5 μg/mL.\nIt should be noted however, that when the method was transferred to an older HPLC system (equipped with a Shimadzu SCT-10Avp system controller and SIL-10A autoinjector), the time program was further altered such that the gradient went to 38% mobile phase B to account to system design changes. All other parameters remained unchanged.\nTigecycline PK parameters for individual dogs were calculated using non-compartmental analysis with PK Functions for Microsoft Excel.", "key": {"[1]": {"conditions": "1 mg IV in PBS (0.08 mg/kg), SC427, individual dogs"}}, "note": "Values joined by “and” are separate entries in the source; they are usually repeats but may differ in a detail not shown here. Equal entries are not always repeated."}
{"smiles": "CN(C)c1cc(NC(=O)CNC(C)(C)C)c(O)c2c1C[C@H]1C[C@H]3[C@H](N(C)C)C(O)=C(C(N)=O)C(=O)[C@@]3(O)C(O)=C1C2=O", "note": "[Tigecycline]", "values": [{"measurement": "AUC(0-t)", "setting": "[1]", "value": "0.0614 µg·h/mL and 0.09954 µg·h/mL"}, {"measurement": "Cmax", "setting": "[1]", "value": "0.06627 µg/mL and 0.08518 µg/mL"}, {"measurement": "Tmax", "setting": "[1]", "value": 5, "unit": "min"}, {"measurement": "Tmax", "setting": "1 mg IV in PBS (0.08 mg/kg), SC427, mean", "value": 5, "unit": "min"}, {"measurement": "Tmax", "setting": "5 mg IV in PBS ([…]), SC431, individual dogs", "value": 5, "unit": "min"}, {"measurement": "Tmax", "setting": "5 mg IV in PBS ([…]), SC431, mean", "value": 5, "unit": "min"}, {"measurement": "Tigecycline Plasma Concentration", "setting": "5 min, 1 mg IV in PBS (0.08 mg/kg), SC427, individual dogs", "value": "66.27 ng/mL and 85.18 ng/mL"}, {"measurement": "Tigecycline Plasma Concentration", "setting": "10 min, 1 mg IV in PBS (0.08 mg/kg), SC427, individual dogs", "value": "23.92 ng/mL and 33.00 ng/mL"}, {"measurement": "Tigecycline Plasma Concentration", "setting": "15 min, 1 mg IV in PBS (0.08 mg/kg), SC427, individual dogs", "value": "19.85 ng/mL and 20.60 ng/mL"}, {"measurement": "Tigecycline Plasma Concentration", "setting": "20 min, 1 mg IV in PBS (0.08 mg/kg), SC427, individual dogs", "value": "21.11 ng/mL and 29.60 ng/mL"}, {"measurement": "Tigecycline Plasma Concentration", "setting": "30 min, 1 mg IV in PBS (0.08 mg/kg), SC427, individual dogs", "value": "17.14 ng/mL and 13.86 ng/mL"}, {"measurement": "Tigecycline Plasma Concentration", "setting": "40 min, 1 mg IV in PBS (0.08 mg/kg), SC427, individual dogs", "value": "11.51 ng/mL and 21.58 ng/mL"}, {"measurement": "Tigecycline Plasma Concentration", "setting": "60 min, 1 mg IV in PBS (0.08 mg/kg), SC427, individual dogs", "value": "12.49 ng/mL and 14.50 ng/mL"}, {"measurement": "Tigecycline Plasma Concentration", "setting": "90 min, 1 mg IV in PBS (0.08 mg/kg), SC427, individual dogs", "value": "8.90 ng/mL and 13.98 ng/mL"}, {"measurement": "Tigecycline Plasma Concentration", "setting": "120 min, 1 mg IV in PBS (0.08 mg/kg), SC427, individual dogs", "value": "8.80 ng/mL and 12.96 ng/mL"}, {"measurement": "Tigecycline Plasma Concentration", "setting": "360 min, 1 mg IV in PBS (0.08 mg/kg), SC427, individual dogs", "value": "0.00 ng/mL (2×) and 3.45 ng/mL"}, {"measurement": "Cmax, Mean", "setting": "IV bolus 1 mg (0.08 mg/kg), SC427", "value": 0.079, "unit": "µg/mL"}, {"measurement": "Tmax", "setting": "IV, Study 1 (SC427), 1 mg (0.08 mg/kg), mean (% CV)", "value": "5 (0) min"}, {"measurement": "concentration at 10 min", "setting": "female, dog, plasma, intravenous, 1 mg, Tigecycline Plasma Concentration, 10 min, 1 mg IV in PBS (0.08 mg/kg), SC427, individual dogs", "value": 0.0388, "unit": "µg/mL"}, {"measurement": "concentration at 10 min", "setting": "female, dog, plasma, intravenous, 1 mg, Tigecycline Plasma Concentration, 10 min, 1 mg IV in PBS (0.08 mg/kg), SC427, mean", "value": 0.0319, "unit": "µg/mL"}, {"measurement": "concentration at 15 min", "setting": "female, dog, plasma, intravenous, 1 mg, Tigecycline Plasma Concentration, 15 min, 1 mg IV in PBS (0.08 mg/kg), SC427, individual dogs", "value": 0.0265, "unit": "µg/mL"}, {"measurement": "concentration at 15 min", "setting": "female, dog, plasma, intravenous, 1 mg, Tigecycline Plasma Concentration, 15 min, 1 mg IV in PBS (0.08 mg/kg), SC427, mean", "value": 0.0223, "unit": "µg/mL"}, {"measurement": "concentration at 20 min", "setting": "female, dog, plasma, intravenous, 1 mg, Tigecycline Plasma Concentration, 20 min, 1 mg IV in PBS (0.08 mg/kg), SC427, individual dogs", "value": 0.0277, "unit": "µg/mL"}, {"measurement": "concentration at 20 min", "setting": "female, dog, plasma, intravenous, 1 mg, Tigecycline Plasma Concentration, 20 min, 1 mg IV in PBS (0.08 mg/kg), SC427, mean", "value": 0.0261, "unit": "µg/mL"}, {"measurement": "concentration at 5 min", "setting": "female, beagle, dog, plasma, intravenous, 1 mg, Tigecycline Plasma Concentration, 5 min, 1 mg IV in PBS (0.08 mg/kg), SC427, individual dogs", "value": 0.086, "unit": "µg/mL"}, {"measurement": "concentration at 5 min", "setting": "female, beagle, dog, plasma, intravenous, 1 mg, Tigecycline Plasma Concentration, 5 min, 1 mg IV in PBS (0.08 mg/kg), SC427, mean", "value": 0.0791, "unit": "µg/mL"}, {"measurement": "concentration at 30 min", "setting": "female, beagle, dog, plasma, intravenous, 1 mg, Tigecycline Plasma Concentration, 30 min, 1 mg IV in PBS (0.08 mg/kg), SC427, individual dogs", "value": 0.0176, "unit": "µg/mL"}, {"measurement": "concentration at 30 min", "setting": "female, beagle, dog, plasma, intravenous, 1 mg, Tigecycline Plasma Concentration, 30 min, 1 mg IV in PBS (0.08 mg/kg), SC427, mean", "value": 0.0162, "unit": "µg/mL"}, {"measurement": "concentration at 40 min", "setting": "female, beagle, dog, plasma, intravenous, 1 mg, Tigecycline Plasma Concentration, 40 min, 1 mg IV in PBS (0.08 mg/kg), SC427, individual dogs", "value": 0.0143, "unit": "µg/mL"}, {"measurement": "concentration at 40 min", "setting": "female, beagle, dog, plasma, intravenous, 1 mg, Tigecycline Plasma Concentration, 40 min, 1 mg IV in PBS (0.08 mg/kg), SC427, mean", "value": 0.0158, "unit": "µg/mL"}, {"measurement": "concentration at 60 min", "setting": "female, beagle, dog, plasma, intravenous, 1 mg, Tigecycline Plasma Concentration, 60 min, 1 mg IV in PBS (0.08 mg/kg), SC427, individual dogs", "value": 0.0135, "unit": "µg/mL"}, {"measurement": "concentration at 60 min", "setting": "female, beagle, dog, plasma, intravenous, 1 mg, Tigecycline Plasma Concentration, 60 min, 1 mg IV in PBS (0.08 mg/kg), SC427, mean", "value": 0.0135, "unit": "µg/mL"}, {"measurement": "concentration at 90 min", "setting": "female, beagle, dog, plasma, intravenous, 1 mg, Tigecycline Plasma Concentration, 90 min, 1 mg IV in PBS (0.08 mg/kg), SC427, individual dogs", "value": 0.0112, "unit": "µg/mL"}, {"measurement": "concentration at 90 min", "setting": "female, beagle, dog, plasma, intravenous, 1 mg, Tigecycline Plasma Concentration, 90 min, 1 mg IV in PBS (0.08 mg/kg), SC427, mean", "value": 0.0114, "unit": "µg/mL"}, {"measurement": "concentration at 120 min", "setting": "female, beagle, dog, plasma, intravenous, 1 mg, Tigecycline Plasma Concentration, 120 min, 1 mg IV in PBS (0.08 mg/kg), SC427, individual dogs", "value": 0.0116, "unit": "µg/mL"}]}
